Legend:
mouse TLR7 = biological target: T1, mouse TLR7 (Mus musculus, UniProt P58681); assay: Mouse TLR7 reporter gene assay (HEK-Blue mTLR7 cell line), Test 2; format: cell-based; details: half of maximal SEAP induction, 20-24-hour incubation, 0.1% DMSO
T1 construct: expresses full-length mouse TLR7 and secretory SEAP reporter gene; host or cells: HEK-Blue mTLR7 (HEK293-derived)
T1 sequence (P58681 27-1050): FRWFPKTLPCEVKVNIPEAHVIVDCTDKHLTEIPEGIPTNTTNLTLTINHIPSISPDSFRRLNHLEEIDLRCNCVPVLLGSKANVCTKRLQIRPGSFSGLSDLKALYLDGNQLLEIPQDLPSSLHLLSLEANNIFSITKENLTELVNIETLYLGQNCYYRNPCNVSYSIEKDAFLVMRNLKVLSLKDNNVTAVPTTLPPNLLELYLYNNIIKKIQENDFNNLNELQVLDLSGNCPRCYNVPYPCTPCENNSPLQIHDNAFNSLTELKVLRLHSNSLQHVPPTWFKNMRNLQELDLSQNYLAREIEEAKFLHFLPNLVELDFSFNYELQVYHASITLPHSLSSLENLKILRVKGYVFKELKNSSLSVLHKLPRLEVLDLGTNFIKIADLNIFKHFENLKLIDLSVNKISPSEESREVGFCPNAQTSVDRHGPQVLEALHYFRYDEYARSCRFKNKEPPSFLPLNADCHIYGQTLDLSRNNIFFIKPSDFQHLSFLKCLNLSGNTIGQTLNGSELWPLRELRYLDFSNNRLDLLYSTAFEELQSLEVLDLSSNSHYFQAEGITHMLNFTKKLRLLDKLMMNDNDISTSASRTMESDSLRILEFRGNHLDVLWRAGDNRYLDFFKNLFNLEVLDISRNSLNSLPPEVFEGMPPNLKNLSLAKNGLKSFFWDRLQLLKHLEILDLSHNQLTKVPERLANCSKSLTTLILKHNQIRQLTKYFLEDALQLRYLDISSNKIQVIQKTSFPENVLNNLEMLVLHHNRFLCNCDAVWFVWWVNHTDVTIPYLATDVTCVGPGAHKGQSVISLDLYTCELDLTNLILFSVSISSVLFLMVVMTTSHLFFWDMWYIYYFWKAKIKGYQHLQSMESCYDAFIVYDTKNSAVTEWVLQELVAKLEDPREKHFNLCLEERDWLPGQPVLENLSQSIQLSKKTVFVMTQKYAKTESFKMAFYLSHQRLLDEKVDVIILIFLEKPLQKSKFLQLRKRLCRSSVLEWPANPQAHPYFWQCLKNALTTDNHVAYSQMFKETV
Excerpt: Test 2 Mouse TLR7 Reporter Gene Assay
HEK-Blue™ mTLR7 cell line (Invivogen) is a stably co-transfected cell line which expresses full-length mouse TLR7 and secretory SEAP reporter gene under the transcriptional regulation of an NF-κB response element. The TLR7 expression of the cell line has been already tested by RT-PCR. Transfectants with stable expression were selected using the antibiotic blasticidin and Zeocin. TLR signaling leads to the translocation of NF-κB and the activation of the promoter results in expression of the SEAP gene. TLR7-specific activation was assessed by determining the level of SEAP produced following 20-24-hour incubation of the cells at 37° C. with each compound prepared in Examples and Reference examples in the presence of 0.1% (v/v) DMSO. The mouse TLR7 activity for the present compound was assessed by mouse TLR7 reporter gene assay, and the results are shown in Tables 5 and 6 as the compound concentration which produced half of the maximal level of SEAP induction (EC50).

human TLR7 = biological target: T2, human TLR7 (Homo sapiens, UniProt Q9NYK1); assay: Human TLR7 reporter gene assay (TLR7/NF-κB/SEAPorter HEK293 cell line), Tests 1 and 21; format: cell-based; details: Test 1; TLR7/NF-κB/SEAPorter HEK293 cell line; half of maximal SEAP induction; 24-hour incubation, 0.1% DMSO; read-out: EC50
T2 construct: expresses full-length human TLR7 and secretory alkaline phosphatase (SEAP) reporter gene; host or cells: HEK293 (TLR7/NF-κB/SEAPorter)
T2 sequence (Q9NYK1 27-1049): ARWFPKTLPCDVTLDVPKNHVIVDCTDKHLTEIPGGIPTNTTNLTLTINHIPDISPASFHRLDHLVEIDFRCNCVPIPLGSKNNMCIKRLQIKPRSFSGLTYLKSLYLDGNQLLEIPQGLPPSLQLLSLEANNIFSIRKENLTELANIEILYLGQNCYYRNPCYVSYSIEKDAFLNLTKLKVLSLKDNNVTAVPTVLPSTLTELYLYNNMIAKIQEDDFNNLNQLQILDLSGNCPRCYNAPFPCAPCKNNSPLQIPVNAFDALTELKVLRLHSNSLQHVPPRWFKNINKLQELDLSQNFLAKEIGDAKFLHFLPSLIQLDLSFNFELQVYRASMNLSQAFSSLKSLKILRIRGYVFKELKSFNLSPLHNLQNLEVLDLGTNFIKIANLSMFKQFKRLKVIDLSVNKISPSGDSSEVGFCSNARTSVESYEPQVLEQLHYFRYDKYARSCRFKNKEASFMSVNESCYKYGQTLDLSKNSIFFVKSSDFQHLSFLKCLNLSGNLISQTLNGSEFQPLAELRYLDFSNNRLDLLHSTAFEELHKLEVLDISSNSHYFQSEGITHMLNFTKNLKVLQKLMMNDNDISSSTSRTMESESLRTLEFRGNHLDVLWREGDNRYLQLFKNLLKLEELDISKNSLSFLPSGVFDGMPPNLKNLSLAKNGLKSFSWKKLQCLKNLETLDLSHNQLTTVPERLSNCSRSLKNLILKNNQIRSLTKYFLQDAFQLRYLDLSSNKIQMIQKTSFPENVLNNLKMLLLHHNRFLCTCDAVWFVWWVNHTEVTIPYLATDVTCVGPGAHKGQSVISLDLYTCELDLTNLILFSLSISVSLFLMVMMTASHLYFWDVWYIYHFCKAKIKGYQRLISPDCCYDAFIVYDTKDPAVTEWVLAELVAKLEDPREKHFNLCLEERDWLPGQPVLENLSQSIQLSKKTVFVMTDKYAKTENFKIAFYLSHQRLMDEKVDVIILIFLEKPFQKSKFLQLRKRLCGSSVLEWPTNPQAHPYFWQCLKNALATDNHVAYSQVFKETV
Excerpt: Human TLR7 Reporter Gene Assay
TLR7/NF-κB/SEAPorter™ HEK293 cell line (Imgenex Corporation) is a stably co-transfected cell line which expresses full-length human TLR7 and secretory alkaline phosphatase (SEAP) reporter gene under the transcriptional regulation of an NF-κB response element. The TLR7 expression of the cell line has been already tested by flow cytometry. Transfectants with stable expression were selected using the antibiotic blasticidin and Geneticin. TLR signaling leads to the translocation of NF-κB and the activation of the promoter results in expression of the SEAP gene. TLR7-specific activation was assessed by determining the level of SEAP produced following 24-hour incubation of the cells at 37° C. with each compound prepared in Examples and Reference examples in the presence of 0.1% (v/v) dimethylsulfoxide (DMSO). The human TLR7 activity for the present compound was assessed by human TLR7 reporter gene assay, and the results are shown in Tables 3 and 4 as the compound concentration which produced half of the maximal level of SEAP induction (EC50)
According to the method of Test 1, human TLR7 reporter gene assay was done with the following samples, and the result was shown in the table below.

| Structure (SMILES) | EC50 (mouse TLR7) [nM] | EC50 (human TLR7) [nM] |
| --- | --- | --- |
| CCCCCNc1nc(N)nc(C)c1Cc1ccc(CN(C)CCOCCOCCOCCOCCO)cc1OC [Example 1, 1-(4-{[2-amino-4-methyl-6-(pentylamino)pyrimidin-5-yl]methyl}-3-methoxyphenyl)-2-methyl-5,8,11,14-tetraoxa-2-azahexadecan-16-ol·trifluoroacetate] | 28 | 68 |
| CCCCCNc1nc(N)nc(C)c1Cc1ccc(CNC)cc1OC [Reference example 12, 5-({2-methoxy-4-[(methylamino)methyl]phenyl}methyl)-6-methyl-N^4-pentylpyrimidine-2,4-diamine, reference compound] | 15 | 50 |

— patent US12427192B2, “Water soluble adjuvant and composition containing same” (Sumitomo Pharma Co., Ltd., priority 2019, dated 2025)
